Consider twelve molecules from patent publication US9464064B2, “HCV helicase inhibitors and methods of use thereof” (University of Kansas, priority 2011, dated 2016).

Where two headings read alike, the source gives them in different places.

The test system of assay [1] is HCV RLuc subgenomic replicon (genotype 1b) in Huh-7.5 cells. Briefly: HCV subgenomic replicon assay (Renilla luciferase). It is filed as cell-based, hepatitis C virus. The text has this:
An HCV Renilla luciferase reporter construct (HCV RLuc; Huang, et al. (2006) Hepatology 43:81-90) was used to measure the effect of each compound on cellular HCV RNA levels. In HCV RLuc, the HCV internal ribosome entry site (IRES) drives the translation of the neomycin and Renilla luciferase genes while the HCV nonstructural proteins (NS3 to NS5B) are translated from the Encephalomyocarditis virus IRES (Huang, et al. (2006) supra). The plasmid DNA was cleaved with ScaI, purified by phenol/chloroform extraction followed by ethanol precipitation, and used as template for RNA transcription using […] T7 RNA transcription kit (Ambion, Austin, Tex.). The RNA transcripts were treated with 2 U DNase I (Ambion) at 37° C. for 30 minutes, purified by acid phenol/chloroform extraction, followed by isopropanol precipitation, and suspended in diethylpyrocarbonate-treated water. RNA concentration was determined by spectrophotometry by measuring the A260. RNA integrity and size was checked on 1% agarose gel. Transcribed RNA was stored in aliquots at −80° C. until needed.
Huh-7.5 cells were transfected with HCV RNA by electroporation. Briefly, subconfluent Huh7.5 cells were trypsinized, suspended in complete growth medium, and centrifuged at 1,000×g for 5 minutes at 4° C. The cell pellets were then washed twice with ice-cold phosphate-buffered saline (PBS) and suspended at 1.75×10^7 cells/mL in ice-cold PBS. Replicon RNA (5 μg) was mixed with 0.4 mL of cell suspension and transferred to 2 mm gap width electroporation cuvette (EPPENDORF AG, Germany) and pulsed 5 times for 99 μsec at 820 V over 1.1 sec intervals using the ECM 830 electroporator instrument (BTX Harvard Apparatus, Holliston, Mass.). After a 5 minute recovery period at room temperature, cells were transferred to 10 ml complete growth medium, and seeded into 10 cm diameter cell culture dishes. Twenty-four hours after transfection, the medium was replaced with fresh complete DMEM supplemented with 1 mg/ml geneticin (Invitrogen) and the medium was replaced every three to four days with fresh medium containing 1 mg/mL geneticin. Geneticin-resistant colonies were selected for a period of two weeks and expanded in the presence of 250 μg/mL geneticin.
HCV RLuc replicon cells were seeded at a density of 10×10^3 cells per well in 96-well plates and incubated for 4-5 hours to allow the cells to attach to the plate. The compounds dissolved in dimethyl sulfoxide (DMSO) were added at a final concentration of 10 μM (DMSO solvent final concentration was 0.5%) and the cells were incubated for 72 hours at 37° C. under 5% CO2 atmosphere. The effects of compounds on HCV replication were then assessed by measuring the Renilla luciferase activity in compound-treated versus DMSO-treated cells. At the end of the incubation period, the medium was aspirated and the cells were washed with 1×PBS. The Renilla luciferase reporter gene assay was performed using the Renilla luciferase assay kit (PROMEGA, Madison, Wis.) according to the manufacturer's instructions. Briefly, the cells were lysed by addition of 50 μL of 1× Renilla luciferase lysis buffer followed by two cycles of freeze/thaw. The luciferase activity content of the lysate was measured with a FLUOSTAR Omega microplate reader instrument (BMG Labtech, Germany) after injecting 50 μL of luciferase substrate and reading for 5 seconds.
To determine if the above identified compounds might be useful as HCV antiviral agents, they were added to cells harboring HCV subgenomic RNA replicon. The HCV replicon chosen was derived from the same HCV strain (genotype 1b) as the NS3 protein used for screening and enzyme assays. […] 75:4614-4624; Blight, et al. (2002) J. Virol. 76:13001-13014). […]
On the technique in general: In antiviral work, replicon cells carry a viral genome segment that copies itself.

The target in assay [2] is T1, NS3h_2a(JFH1) (Hepatitis C virus genotype 2a, UniProt Q99IB8).
T1 construct: truncated C-terminally His-tagged NS3 proteins lacking the N-terminal protease, called NS3h; His-tag (C); made in house
T1 sequence (Q99IB8 1196-1661): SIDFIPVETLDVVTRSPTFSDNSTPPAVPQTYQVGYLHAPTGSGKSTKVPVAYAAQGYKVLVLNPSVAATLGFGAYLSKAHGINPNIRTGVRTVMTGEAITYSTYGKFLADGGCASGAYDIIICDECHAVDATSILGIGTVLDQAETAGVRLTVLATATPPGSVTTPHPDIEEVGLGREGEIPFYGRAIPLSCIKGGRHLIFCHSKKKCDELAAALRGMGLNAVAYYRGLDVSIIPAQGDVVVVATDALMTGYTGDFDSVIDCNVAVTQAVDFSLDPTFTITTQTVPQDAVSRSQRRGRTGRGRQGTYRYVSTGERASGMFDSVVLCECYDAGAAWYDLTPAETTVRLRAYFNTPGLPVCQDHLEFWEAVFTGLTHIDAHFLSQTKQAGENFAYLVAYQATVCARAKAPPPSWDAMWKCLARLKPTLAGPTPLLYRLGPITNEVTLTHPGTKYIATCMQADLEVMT
As to the kind of experiment: MBHA, DNA substrate, genotype 2a helicase. It is filed as biochemical, hepatitis C virus genotype 2a(JFH1). As to the method: All oligonucleotides were purchased from Integrated DNA Technologies (IDT, Coralville, Iowa). Primuline derivatives were synthesized and purified as described herein. Three different NS3 proteins were used in this study. Two were truncated C-terminally His-tagged NS3 proteins lacking the N-terminal protease, called NS3h, the third was a full-length NS3 with the portion of NS4A needed for protease activation fused to its N-terminus, called scNS4A-NS3 (Howe, et al. (1999) Protein Sci. 8:1332-41), and the fourth was a 23 kDa scNS4A-NS3 protease fragment lacking the helicase domains, called scNS4A-NS3p (Protein One, Rockville, Md.). NS3h was expressed from two different HCV strains. NS3h_1b(con1) was from the con1 strain of genotype 1b (GENBANK accession AB114136), and NS3h_2a(JFH1) was from the JFH1 strain of HCV genotype 2a (GENBANK accession AJ238799). […] His-tagged recombinant NS3h_1b(con1), NS3h_2a(JFH1), and scNS4A-NS3 (also from genotype 1b(con1)) were expressed, and purified as previously described (Frick, et al. (2010) supra; Lam, et al. (2003) J. Virol. 77:3950-3961). The scNS4A-NS3p (genotype 1b) was from Protein One. A plasmid expressing NS3h from dengue virus strain 2 (NS3h_DV2)(GENBANK accession 2BMF) is known in the art (Xu, et al. (2005) J. Virol. 79:10278-10288), and used to express and purify NS3h_DV2 (Belon, et al. (2010) supra)
Compounds that specifically target less conserved regions of a HCV protein are often not potent inhibitors of the same protein derived from other genotypes, and they might be susceptible to rapid evolution of related viruses. As described herein, primuline derivatives can inhibit HCV helicase isolated from the genotype 1b(con1) strain. Therefore to further analyze specificity, the subset of primuline analogs was tested on the helicase isolated from the genotype 2a(JFH1) strain. The two recombinant proteins differ at 83 of their 480 amino acids. The JHF1 strain is also of interest because it serves as the backbone for HCV strains capable of replicating in cell culture (Wakita, et al. (2005) Nat. Med. 11:791-796). The molecular beacon-based helicase assay (MBHA) (Belon & Frick (2008) supra) was used to measure the ability of each compound to inhibit DNA unwinding catalyzed by NS3h isolated from genotype 2a(JFH1) (NS3h_2a(JFH1)). […] Selected compounds were also tested for the ability to inhibit helicase reactions catalyzed by full-length NS3 and a single chain NS4A-NS3 protein (scNS4A-NS3) described below and used for protease assays.

Setting [3] is: Hepatitis C virus, Huh7.5, 10 μM compound, triplicate, average ± SD, read-out: HCV replication (% Inh.).
Setting [4] is: Hepatitis C virus, Huh7.5, 10 μM, read-out: Replicon (% Inhibition @ 10 μM).
The mark [5] stands for this setting: DNA-based MBHA, genotype 2a(JFH1), read-out: DNA Helicase NS3h_2a IC50 (μM) ± SD.
Setting [6] is: genotype 2a (JFH1), read-out: Target Potency MBHA (IC50 avg., μM) 2a (JFH1) (converted).

For orientation: IC50 means the concentration needed to halve the response being measured. On to `Cc1ccc2nc(-c3ccc4nc(-c5ccc(NC(=O)c6ccc(C(C)(C)C)cc6)cc5)sc4c3)sc2c1S(=O)(=O)O` [Compound 13, 2′-(4-(4-(tert-butyl)benzamido)phenyl)-6-methyl-[2,6′-bibenzo[d]thiazole]-7-sulfonic acid], for which the inhibition at 10 µM in assay [1] (setting [3]) and in assay [1] (setting [4]) was 51 ± 9% throughout. The half-maximal inhibitory concentration (IC50) in assay [2] (setting [5]) and in assay [2] (setting [6]) was 5 ± 0.7 µM each time.
With `Cc1ccc2nc(-c3ccc4nc(-c5ccc(NC(=O)c6ccc(N(C)C)cc6)cc5)sc4c3)sc2c1S(=O)(=O)O` [Compound 14, 2′-(4-(4-(dimethylamino)benzamido)phenyl)-6-methyl-[2,6′-bibenzo[d]thiazole]-7-sulfonic acid], the inhibition at 10 µM in assay [1] (setting [3]) and in assay [1] (setting [4]) was 22 ± 2% throughout. In assay [2] (setting [6]), the concentration for half-maximal inhibition (IC50) was 6.4 ± 1.2 µM.
With `Cc1ccc2nc(-c3ccc4nc(-c5ccc(NC(=O)c6ccc(Br)cc6)cc5)sc4c3)sc2c1S(=O)(=O)O` [Compound 15, 2′-(4-(4-bromobenzamido)phenyl)-6-methyl-[2,6′-bibenzo[d]thiazole]-7-sulfonic acid], the inhibition at 10 µM in assay [1] (setting [3]) and in assay [1] (setting [4]) was 7 ± 18% each time. For the same molecule, the IC50 in assay [2] (setting [5]) was 7 ± 3.3 µM; in assay [2] (setting [6]), 7.4 ± 3 µM.
For `Cc1ccc2nc(-c3ccc4nc(-c5ccc(NC(=O)c6ccc(NC(=O)OCC7c8ccccc8-c8ccccc87)cc6)cc5)sc4c3)sc2c1S(=O)(=O)O` [Compound 16, 2′-(4-(4-((((9H-fluoren-9-yl)methoxy)carbonyl)amino)benzamido)phenyl)-6-methyl-[2,6′-bibenzo[d]thiazole]-7-sulfonic acid], the inhibition at 10 µM in assay [1] (setting [3]) and in assay [1] (setting [4]) was 57 ± 21% throughout. In addition, the IC50 in assay [2] (setting [6]) was 5.8 ± 3.1 µM.
On to `Cc1ccc2nc(-c3ccc4nc(-c5ccc(NC(=O)c6cccc(Cl)c6)cc5)sc4c3)sc2c1S(=O)(=O)O` [Compound 17, 2′-(4-(3-chlorobenzamido)phenyl)-6-methyl-[2,6′-bibenzo[d]thiazole]-7-sulfonic acid], for which the inhibition at 10 µM in assay [1] (setting [3]) and in assay [1] (setting [4]) was 54 ± 10% each time. For the same molecule, the concentration for half-maximal inhibition (IC50) in assay [2] (setting [5]) was 4 ± 0.5 µM; in assay [2] (setting [6]), 3.9 ± 1 µM.
As for `Cc1ccc2nc(-c3ccc4nc(-c5ccc(NC(=O)c6ccc(Cl)c(Cl)c6)cc5)sc4c3)sc2c1S(=O)(=O)O` [Compound 18, 2′-(4-(3,4-dichlorobenzamido)phenyl)-6-methyl-[2,6′-bibenzo[d]thiazole]-7-sulfonic acid], the inhibition at 10 µM in assay [1] (setting [3]) and in assay [1] (setting [4]) was 43 ± 15% each time. Also, in assay [2] (setting [6]), the concentration for half-maximal inhibition (IC50) is 4.5 ± 1 µM.
In the case of `Cc1ccc2nc(-c3ccc4nc(-c5ccc(NC(=O)c6ccccc6C(F)(F)F)cc5)sc4c3)sc2c1S(=O)(=O)O` [Compound 19, 6-methyl-2′-(4-(2-(trifluoromethyl)benzamido)phenyl)-[2,6′-bibenzo[d]thiazole]-7-sulfonic acid], the inhibition at 10 µM in assay [1] (setting [3]) is 0%; in assay [1] (setting [4]), 0.3 ± 9%. Further, the half-maximal inhibitory concentration (IC50) in assay [2] (setting [6]) is 24.3 ± 9 µM.
With `Cc1ccc2nc(-c3ccc4nc(-c5ccc(NC(=O)c6cccc(C(F)(F)F)c6)cc5)sc4c3)sc2c1S(=O)(=O)O` [Compound 20, 6-methyl-2′-(4-(3-(trifluoromethyl)benzamido)phenyl)-[2,6′-bibenzo[d]thiazole]-7-sulfonic acid], the inhibition at 10 µM in assay [1] (setting [3]) and in assay [1] (setting [4]) was 41 ± 8% throughout. The IC50 in assay [2] (setting [6]) was 15.9 ± 2 µM.
Regarding `Cc1ccc2nc(-c3ccc4nc(-c5ccc(NC(=O)c6c(F)cccc6C(F)(F)F)cc5)sc4c3)sc2c1S(=O)(=O)O` [Compound 21, 2′-(4-(2-fluoro-6-(trifluoromethyl)benzamido)phenyl)-6-methyl-[2,6′-bibenzo[d]thiazole]-7-sulfonic acid], the inhibition at 10 µM in assay [1] (setting [3]) and in assay [1] (setting [4]) was 55 ± 7% in each case. Further, the IC50 in assay [2] (setting [6]) was 54 ± 19.7 µM.
Regarding `Cc1ccc2nc(-c3ccc4nc(-c5ccc(NC(=O)c6cccc(C(F)(F)F)c6F)cc5)sc4c3)sc2c1S(=O)(=O)O` [Compound 22, 2′-(4-(2-fluoro-3-(trifluoromethyl)benzamido)phenyl)-6-methyl-[2,6′-bibenzo[d]thiazole]-7-sulfonic acid], the inhibition at 10 µM in assay [1] (setting [3]) and in assay [1] (setting [4]) was 48 ± 18% throughout. In addition, the 50% inhibitory concentration (IC50) in assay [2] (setting [6]) is 8.1 ± 2 µM.
For `Cc1ccc2nc(-c3ccc4nc(-c5ccc(NC(=O)c6ccc(C(F)(F)F)c(F)c6)cc5)sc4c3)sc2c1S(=O)(=O)O` [Compound 23, 2′-(4-(3-fluoro-4-(trifluoromethyl)benzamido)phenyl)-6-methyl-[2,6′-bibenzo[d]thiazole]-7-sulfonic acid], the inhibition at 10 µM in assay [1] (setting [3]) and in assay [1] (setting [4]) was 48 ± 4% each time. For the same molecule, the IC50 in assay [2] (setting [6]) was 13 ± 2 µM.
For `Cc1ccc2nc(-c3ccc4nc(-c5ccc(NC(=O)c6cc(C(F)(F)F)cc(C(F)(F)F)c6)cc5)sc4c3)sc2c1S(=O)(=O)O` [Compound 24, 2′-(4-(3,5-bis(trifluoromethyl)benzamido)phenyl)-6-methyl-[2,6′-bibenzo[d]thiazole]-7-sulfonic acid], the inhibition at 10 µM in assay [1] (setting [3]) and in assay [1] (setting [4]) was 60 ± 4% each time. Also, the EC50 in assay [1] (Hepatitis C virus, Huh7.5, HCV Rluc subgenomic replicon cells, read-out: concentration needed to reduce replicon-encoded luciferase by 50%) was 5 ± 2 µM. Further, the “combination of compound 24 and telaprevir on replicon expression” value in assay [1] (Rluc subgenomic HCV replicon cells) is “No synergy”. Further, the “loss of HCV replicon Rluc activity” value in assay [1] (elevated concentrations (>10 μM)) was “more than 90%”. The values for the IC50 in assay [2] (setting [5]) and in assay [2] (setting [6]) were 29 ± 5.2 µM and 28.7 ± 5 µM, respectively.
